According to US20150335678A1, “METHOD OF ACTIVATING STEM CELLS IN AN ANIMAL AND THE USE OF CHLORINE DIOXIDE FOR PREPARING MEDICINES FOR ACTIVATING STEM CELLS IN AN ANIMAL” (priority 2012, published 2015):

What was measured:
Ankylosing spondylitis = Ankylosing spondylitis patients: BASRI, Harris hip score, BASDAI, BASFI, ESR, CRP (Example 6); details: for BASDAI: before treatment 6.4 ± 1.8; for BASFI: before treatment 7.3 ± 1.6; for CRP: before treatment 17.6 ± 4.2; for ESR: before treatment 29.4 ± 9.8; for BASRI Staging: before treatment 45 ± 5; for Harris hip score: before treatment 82 ± 6
Protocol: The first solution was a mixed solution made of sodium chlorite with the concentration of 7.47% and sodium chloride with the concentration of 1.59% with deionized water; the second solution was made of citric acid with the concentration of 16.7% with deionized water. Same volume of solutions were taken out from different vessels with different volume and put into the suitable glass or plastic cups prepared. Allow the solution to mix for 3-5 minutes and then filter the solution with 0.22 μm filter membrane of double-deck, dimethyl sulfoxide was added in the ratio of 1:1. The solution was smeared over the region immediately and repeatedly, once a day for consecutive three weeks. The administration was stopped for a week, and then began the treatment for consecutive three weeks, stop the drug for a week. The medicine was repeated for four cycles. Clean and disinfect the area before administration and conduct local anesthetic 30 minutes before operation. To use corresponding amount of solution according to different regions, varying from 1-10 ml/100 cm^2.
The subjects consisted of 8 male and 4 female AS patients aged from 18 to 40 years old (average age: 26 years old).
Mean index: the index of X ray of the hip joints:
Stage I: suspicious change, local joint space may become narrower, 25 points;
Stage II: mildly abnormal, joint space becomes narrower obviously, the space>2 mm, 50 points;
Stage III: moderately abnormal, joint space becomes narrow, and the space <2 mm or the local joint space disappears, articular surfaces <2 mm, 75 points;
Stage IV: severe abnormal, bone deformation, articular surfaces >2 cm, 100 points.
If two of the three symptoms, namely, erosion and damage, syndesmophyte formation, arthrokatadysis appear during stage I and II, it should increase a level accordingly. BASRI evaluation was given according to different levels. Harris score: full score is 100 points, including pain degree of hip joints (44 points), function of hip joints (47 points), degree of lower limb malformation (4 points), range of activity of hip joints (5 points). Corresponding scores were given according to degrees. BASFI, BASDAI, ESR, CRP were applied in evaluating disease activity and function.

cartilage of hip joint = assay: Hip arthritis patients: thickness of cartilage of hip joint by ultrasonic scanning; type: in vivo, human; details: listed as activating agent of stem cells comprising a chlorine dioxide; for Medical cartilage thickness mean(±SD): before administration 0.51 (±0.07); for Lateral cartilage thickness mean(±SD): before administration 0.61 (±0.09)
Protocol: (§1) To smear the solution over the skin of hip arthritis with swab immediately, once a day for consecutive 20 days. Then stop the administration for three months, and then began continuous treatment for 20 days. Clean and disinfect the regions before treatment, conduct local anesthetic 30 minutes before the operation.
(§2) The subjects who joined in the treatment group as volunteers consisted of 11 patients with hip arthritis (5 male, aged from 40 to 70 years old and 6 female, aged from 40 to 65 years old.). Case histories were recorded at the third and the sixth month by collecting personal and data of human body (height, body weight, BMI, blood pressure and heart rate.) Then evaluate the following parameters:
Thickness of cartilage of hip joint: measured by ultrasonic scanning at the core, the center and the lateral.

[1] = test system: hip arthritis (osteoarthritis); assay: Hip arthritis patients: VAS pain intensity, WOMAC, tolerance (Example 5); type: in vivo, human; details: 11 hip arthritis patients; for WOMAC mean (±SD): beginning 55.03 (±26.63); for Doctor VAS pain intensity, mean (±SD), 0-100: beginning 55.23 (±9.66); for Patients VAS pain intensity, mean (±SD), 0-100: beginning 58.32 (±8.25)
Protocol: as §1, §2
Pain intensity: VAS was used, ranging from 0 (normal) to 100 (maximum intensity), it was conducted by the doctor and patient:
Seriousness of the illness: Womac, namely, self-assessment of hip arthritis that consists of 24 items was used to detect the development and effect of the treatment.

[2] = 12 AS patients, topical with DMSO
[3] = the sixth month, 12 AS patients, topical with DMSO
[4] = the third month, 12 AS patients, topical with DMSO

SMILES: [O][Cl+][O-] [chlorine dioxide solution, chlorine dioxide]
- time until pain and itch during administration disappear completely (Ankylosing spondylitis; [2]): after an hour
- tolerance (Ankylosing spondylitis; [2]): without local or systemic anaphylactic reaction
- change of BASRI staging of the involved hip joints vs before administration (Ankylosing spondylitis; six months after administration): reduced a level
- BASDAI (Ankylosing spondylitis; [3]): 3.0 ± 1.2
- BASFI (Ankylosing spondylitis; [3]): 2.9 ± 1.1
- CRP (Ankylosing spondylitis; [3]): 1.2 ± 0.6
- ESR (Ankylosing spondylitis; [3]): 9.1 ± 6.8
- BASRI Staging (Ankylosing spondylitis; [3]): 25 ± 8
- Harris hip score (Ankylosing spondylitis; [3]): 32 ± 4
- BASDAI (Ankylosing spondylitis; [4]): 3.6 ± 1.5
- BASFI (Ankylosing spondylitis; [4]): 3.3 ± 1.4
- CRP (Ankylosing spondylitis; [4]): 6.3 ± 3.5
- ESR (Ankylosing spondylitis; [4]): 11.8 ± 7.6
- BASRI Staging (Ankylosing spondylitis; the third month, 12 AS patients, NaClO2 7.47% + citric acid 16.7% 1:1, DMSO 1:1, smeared once a day, three weeks on/one week off, four cycles): 30 ± 6
- Harris hip score (Ankylosing spondylitis; [4]): 49 ± 5
- change of BASRI staging of the involved hip joints vs before administration (Ankylosing spondylitis; three months after administration): reduced half level
- Medical cartilage thickness mean(±SD) (cartilage of hip joint; sixth month): 0.66 (±0.16) mm
- Lateral cartilage thickness mean(±SD) (cartilage of hip joint; sixth month): 0.73 (±0.11) mm
- Central cartilage thickness mean (±SD) (cartilage of hip joint; sixth month, before administration 0.73 (±0.09)): 0.89 (±0.09) mm
- Central cartilage thickness, percentage increase (cartilage of hip joint; sixth month): 12.7%
- Lateral cartilage thickness, percentage increase (cartilage of hip joint; sixth month): 8.9%
- Medical cartilage thickness, percentage increase (cartilage of hip joint; sixth month): 11.9%
- Medical cartilage thickness mean(±SD) (cartilage of hip joint; third month, ultrasound, 11 hip arthritis patients, topical with DMSO): 0.59 (±0.08) mm
- Lateral cartilage thickness mean(±SD) (cartilage of hip joint; third month): 0.67 (±0.10) mm
- Central cartilage thickness, percentage increase (cartilage of hip joint; third month): 8.2%
- Lateral cartilage thickness, percentage increase (cartilage of hip joint; third month): 9.8%
- Medical cartilage thickness, percentage increase (cartilage of hip joint; third month): 15.6%
- time until pain and itch during administration disappeared completely ([1]; topical with DMSO): about an hour
- tolerance ([1]; topical with DMSO): without local or systemic anaphylactic reaction
- WOMAC mean (±SD) ([1]; sixth month, topical with DMSO): 6.54 (±5.86)
- Doctor VAS pain intensity, mean (±SD), 0-100 ([1]; sixth month, topical with DMSO): 7.11 (±6.93)
- Patients VAS pain intensity, mean (±SD), 0-100 ([1]; sixth month, topical with DMSO): 6.32 (±6.53)
- WOMAC mean (±SD) ([1]; third month, topical with DMSO): 20.11 (±22.53)
- Doctor VAS pain intensity, mean (±SD), 0-100 ([1]; third month, topical with DMSO): 20.03 (±7.32)
- Patients VAS pain intensity, mean (±SD), 0-100 ([1]; third month, NaClO2 8%/NaCl 2% + citric acid 15% 1:1, DMSO 1:1, smeared once a day 20 days, three months off, 20 days): 18.24 (±7.25)
